Measurements as given in article PMC10303200 (ACS Central Science, 2023).

The compounds below were run against T1, PHA-E (Phaseolus vulgaris erythroagglutinin) (Phaseolus vulgaris, UniProt P05088). Conditions: read-out: Kd (Native); pH 6.9.
T1 construct: purchased Vector Laboratories (Newark, CA, USA)
Assay type: binding

T1 sequence (P05088 22-275 limits assumed): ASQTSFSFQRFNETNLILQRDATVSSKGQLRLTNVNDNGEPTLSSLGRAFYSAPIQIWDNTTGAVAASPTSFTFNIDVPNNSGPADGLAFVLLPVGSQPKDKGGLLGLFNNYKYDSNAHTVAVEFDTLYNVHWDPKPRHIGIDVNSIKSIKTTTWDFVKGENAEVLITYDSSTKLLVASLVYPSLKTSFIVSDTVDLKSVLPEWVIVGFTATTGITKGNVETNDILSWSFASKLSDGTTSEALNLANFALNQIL

How did the Kd turn out when CC(=O)N[C@H]1[C@H](O[C@H]2[C@H](O)[C@@H](NC(C)=O)C(O)O[C@@H]2CO)O[C@H](CO)[C@@H](O[C@@H]2O[C@H](CO[C@H]3O[C@H](CO)[C@@H](O)[C@H](O)[C@@H]3O[C@@H]3O[C@H](CO)[C@@H](O[C@@H]4O[C@H](CO)[C@H](O)[C@H](O)[C@H]4O)[C@H](O)[C@H]3NC(C)=O)[C@@H](O)[C@H](O[C@H]3O[C@H](CO)[C@@H](O)[C@H](O)[C@@H]3O[C@@H]3O[C@H](CO)[C@@H](O[C@@H]4O[C@H](CO)[C@H](O)[C@H](O)[C@H]4O)[C@H](O)[C@H]3NC(C)=O)[C@@H]2O)[C@@H]1O (stereo partly drawn) [HexNAc4Hex5] was run?
The Kd was 13.1 ± 0.8 µM.

With CC(=O)N[C@H]1[C@H](O[C@H]2[C@H](O)[C@@H](NC(C)=O)C(O)O[C@@H]2CO[C@@H]2O[C@@H](C)[C@@H](O)[C@@H](O)[C@@H]2O)O[C@H](CO)[C@@H](O[C@@H]2O[C@H](CO[C@H]3O[C@H](CO)[C@@H](O)[C@H](O)[C@@H]3O[C@@H]3O[C@H](CO)[C@@H](O)[C@H](O)[C@H]3NC(C)=O)[C@@H](O)[C@H](O[C@H]3O[C@H](CO)[C@@H](O)[C@H](O)[C@@H]3O[C@@H]3O[C@H](CO)[C@@H](O)[C@H](O)[C@H]3NC(C)=O)[C@@H]2O)[C@@H]1O (stereo partly drawn) [HexNAc4Hex3Fuc1] as the compound, how does the Kd read?
The Kd was 18.6 ± 3.5 µM.

For CC(=O)N[C@H]1[C@H](O[C@H]2[C@H](O)[C@@H](NC(C)=O)C(O)O[C@@H]2CO[C@@H]2O[C@@H](C)[C@@H](O)[C@@H](O)[C@@H]2O)O[C@H](CO)[C@@H](O[C@@H]2O[C@H](CO[C@H]3O[C@H](CO)[C@@H](O)[C@H](O)[C@@H]3O[C@@H]3O[C@H](CO)[C@@H](O[C@@H]4O[C@H](CO)[C@H](O)[C@H](O)[C@H]4O)[C@H](O)[C@H]3NC(C)=O)[C@@H](O)[C@H](O[C@H]3O[C@H](CO)[C@@H](O)[C@H](O)[C@@H]3O[C@@H]3O[C@H](CO)[C@@H](O[C@@H]4O[C@H](CO)[C@H](O)[C@H](O)[C@H]4O)[C@H](O)[C@H]3NC(C)=O)[C@@H]2O)[C@@H]1O (stereo partly drawn) [HexNAc4Hex5Fuc1], which Kd is on record?
Its Kd is 12.3 ± 3.6 µM.
